Target: T1, 3-hydroxy-3-methylglutaryl-coenzyme A reductase (Homo sapiens, UniProt P04035)
T1 sequence (P04035 whole entry): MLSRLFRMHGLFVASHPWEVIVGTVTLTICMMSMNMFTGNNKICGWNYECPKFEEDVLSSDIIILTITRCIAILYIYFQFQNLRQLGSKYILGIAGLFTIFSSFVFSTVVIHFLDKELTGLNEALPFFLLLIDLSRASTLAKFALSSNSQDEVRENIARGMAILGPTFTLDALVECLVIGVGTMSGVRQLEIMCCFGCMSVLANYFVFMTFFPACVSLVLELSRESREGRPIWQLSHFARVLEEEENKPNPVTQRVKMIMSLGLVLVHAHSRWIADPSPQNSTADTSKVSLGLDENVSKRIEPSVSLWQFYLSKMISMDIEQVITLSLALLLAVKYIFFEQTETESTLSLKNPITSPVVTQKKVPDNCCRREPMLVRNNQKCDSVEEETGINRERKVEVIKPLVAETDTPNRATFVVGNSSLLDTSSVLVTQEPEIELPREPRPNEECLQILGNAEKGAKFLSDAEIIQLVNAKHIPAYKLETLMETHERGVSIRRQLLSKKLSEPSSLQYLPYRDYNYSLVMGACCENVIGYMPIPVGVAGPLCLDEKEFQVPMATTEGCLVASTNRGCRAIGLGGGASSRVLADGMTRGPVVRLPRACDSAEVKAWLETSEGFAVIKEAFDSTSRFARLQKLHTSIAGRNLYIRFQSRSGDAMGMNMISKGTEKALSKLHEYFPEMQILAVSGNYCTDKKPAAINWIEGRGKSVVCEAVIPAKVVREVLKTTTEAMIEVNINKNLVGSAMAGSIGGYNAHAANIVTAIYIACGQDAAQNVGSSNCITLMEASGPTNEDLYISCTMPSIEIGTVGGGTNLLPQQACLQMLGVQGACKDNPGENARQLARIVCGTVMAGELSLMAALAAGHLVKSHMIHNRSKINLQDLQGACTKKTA
Experiment: Inhibition of HMG-CoA reductase (unknown origin)

## CC(C)n1c(/C=C/[C@@H](O)C(F)(F)[C@@H](O)CC(=O)O)c(-c2ccc(F)cc2)c2ccccc21
  IC50: 8.89 nM
